In patent publication US12042501B2, “Metal protoporphyrin for treatment of BK virus” (Renibus Therapeutics, Inc., priority 2021, dated 2024):
pEC50: −log10 of the molar value. “Also recorded” adds a separate entry of the source. Like-named read-outs stand apart in the source and are kept apart here.

Key:
BK Virus [1] = experiment: BK virus standard qPCR-based antiviral assay (treatment with SnPP at the time of infection; primary and secondary); assay type: cell-based, strain Gardner; conditions: for Activity: BK; for SI50: CC50/EC50; for SI90: CC50/EC90
BK Virus [2] = experiment: BK virus viral neutralization assay (pre-incubation of SnPP with BK virus for 1 hour prior to infection), qPCR; assay type: cell-based, strain Gardner; conditions: for SI50 / SI90 / pEC50 / EC90: experiment 21-bk2-004; for SI50 / SI90: Secondary (Neutralization); for SI50: CC50/EC50; for SI90: CC50/EC90; for pEC50 / EC90: Secondary (Neutralization, pre-incubation of virus), BK Virus Gardner in HFF, qPCR (DNA)
JC virus [3] = experiment: JC virus qPCR antiviral assay in COS7 cells (primary/standard); assay type: cell-based, 1-4 strain; conditions: for Activity / pEC50 / EC90 / SI50: JC; for Activity: Non-enveloped; for SI50: CC50/EC50
Procedure: (§1) Primary evaluation of compounds against JC virus were also performed by methods similar to those for BK virus primary assays but were done in COS7 cells and utilized the 1-4 strain of JCV in COS7 cells. Viral DNA was quantified using primers 5′-[…]-3′ and 5′-[…]-3′ and probe 5′-6-FAM-[…]-TAMRA-3 together with the plasmid pMP508 to provide a standard curve for absolute quantification. Secondary assays against JCV were also performed in COS7 cells by methods similar to those for BK virus to identify compounds that inhibited adsorption or penetration of the virus. • EC50—compound concentration that reduces viral replication by 50% • EC90—compound concentration that reduces viral replication by 90% • CC50—compound concentration that reduces cell viability by 50% • SI50—CC50/EC50 • SI90—CC50/EC90

JC virus [4] = experiment: JC virus neutralization assay (pre-incubation of virus with RBT-9) in COS7 cells; assay type: cell-based, 1-4 strain
Procedure: The present inventors used assays to determine the antiviral activity against various pathogens, including particularly the BK virus. Two conditions were investigated: 1) standard qPCR-based antiviral assay—treatment with SnPP at the time of infection and 2) viral neutralization—pre-incubation of SnPP with BK virus for 1 hour prior to infection. SnPP was tested at concentrations up to 100 μM. Human foreskin fibroblast (HFF) cells were used as the host cell. Viral activity was assessed by real time qPCR and cellular viability was determined by CellTiter-Glo.
as §1

Adenovirus (Adv) = experiment: AdV primary antiviral assay; assay type: cell-based
HPV (HPV11) = experiment: HPV primary antiviral assay; assay type: cell-based, Human Papilloma Virus
CMV = CMV primary antiviral assay; assay type: cell-based
[5] = in vivo
[6] = system: acute kidney injury (AKI); conditions: animals; given prior to insult; cited from earlier work
[7] = system: non-enveloped polio virus; conditions: in vitro; Neris et al. 2018; cited from earlier work
enveloped viruses = conditions: in vitro; Neris et al. 2018; cited from earlier work
HFF cells = experiment: Cellular viability by CellTiter-Glo in the BK virus assays
[8] = as above; conditions: human
[9] = experiment 21-bk2-001, Secondary
[10] = experiment 21-bk2-003, Primary (Standard)
[11] = experiment 21-bk2-003, Primary (Standard), HFF, CellTiter-Glo
[12] = experiment 21-bk2-004, Secondary (Neutralization), HFF, CellTiter-Glo

SMILES: C=CC1=C(C)c2cc3[n-]c(cc4[n-]c(cc5nc(cc1n2)C(C)=C5C=C)c(C)c4CCC(=O)O)c(CCC(=O)O)c3C.[Sn+2] [SnPP, Stannous protoporphyrin]
- Activity (BK Virus [1]; Primary (20-bk-007)): MODERATE
- Activity (BK Virus [1]; Primary (Standard) (21-bk2-003)): MODERATE
- Activity (BK Virus [1]; Secondary (21-bk2-001)): HIGH
- pEC50 (BK Virus [1]; averaged in 2 independently run standard qPCR assays, BK virus, read-out: 50% effective concentration (EC50), average): 5.26
- antiviral / inactivating activity against BK virus (in words) (BK Virus [1]; both treatment conditions): broad inactivating activity; also recorded: moderate antiviral activity; also recorded: most significant activity
- EC90 (BK Virus [1]; experiment 20-bk-007, Primary, BK Virus Gardner in HFF, qPCR (DNA)): 26.6 µM
- pEC50 (BK Virus [1]; experiment 20-bk-007, Primary, BK Virus Gardner in HFF, qPCR (DNA), read-out: EC50): 5.09
- SI50 (BK Virus [1]; experiment 20-bk-007, Primary): 8
- SI90 (BK Virus [1]; experiment 20-bk-007, Primary): 2
- EC90 (BK Virus [1]; experiment 21-bk2-001, Secondary, BK Virus Gardner in HFF, qPCR (DNA)): 30.1 µM
- pEC50 (BK Virus [1]; experiment 21-bk2-001, Secondary, BK Virus Gardner in HFF, qPCR (DNA), read-out: EC50): 5.62
- SI50 (BK Virus [1]; [9]): 40
- SI90 (BK Virus [1]; [9]): 3
- EC90 (BK Virus [1]; experiment 21-bk2-003, Primary (Standard), BK Virus Gardner in HFF, qPCR (DNA)): 81.8 µM
- pEC50 (BK Virus [1]; experiment 21-bk2-003, Primary (Standard), BK Virus Gardner in HFF, qPCR (DNA), read-out: EC50): 5.07
- SI50 (BK Virus [1]; [10]): 10
- SI90 (BK Virus [1]; [10]): 1
- Activity (BK Virus [2]; BK, Secondary (Neutralization) (21-bk2-004)): MODERATE
- SI50 (BK Virus [2]): 15
- SI90 (BK Virus [2]): 3
- pEC50 (BK Virus [2]): 5.27
- EC90 (BK Virus [2]): 32.9 µM
- inactivating activity against JC virus (in words) (JC virus [3]): moderate inactivating activity
- Activity (JC virus [3]; Primary): MODERATE
- Activity (JC virus [3]; Primary (Standard)): MODERATE
- pEC50 (JC virus [3]; Primary): 5.27
- EC90 (JC virus [3]; Primary): > 30 µM
- pEC50 (JC virus [3]; Primary (Standard)): 5.00
- EC90 (JC virus [3]; Primary (Standard)): 63.1 µM
- SI50 (JC virus [3]; Primary (Standard)): 7
- SI50 (JC virus [3]; Primary): 19
- Activity (JC virus [4]; Non-enveloped, Secondary (Neutralization, pre-incubation of virus with RBT-9)): MINIMAL
- pEC50 (JC virus [4]; Secondary (Neutralization)): 4.72
- EC90 (JC virus [4]; Secondary (Neutralization)): > 20 µM
- SI50 (JC virus [4]; Secondary (Neutralization), CC50/EC50): 4
- inactivating activity against Adenovirus (in words) (Adenovirus (Adv)): not found; also recorded: Minimal to no activity
- Activity (Adenovirus (Adv); AdV, Non-enveloped, Primary): NONE
- pEC50 (Adenovirus (Adv); AdV, Primary): < 4.52
- EC90 (Adenovirus (Adv); AdV, Primary): > 30 µM
- SI50 (Adenovirus (Adv); AdV, Primary, CC50/EC50): <1
- inactivating activity against HPV (in words) (HPV (HPV11)): not found; also recorded: Minimal to no activity
- Activity (HPV (HPV11); HPV (HPV11), Non-enveloped, Primary): MINIMAL
- pEC50 (HPV (HPV11); HPV (HPV11), Primary): 4.63
- EC90 (HPV (HPV11); HPV (HPV11), Primary): > 30 µM
- SI50 (HPV (HPV11); HPV (HPV11), Primary, CC50/EC50): 5
- pEC50 (CMV): < 5.22
- EC90 (CMV): > 6 µM
- SI50 (CMV; CC50/EC50): <3
- Activity (CMV; Enveloped): NONE
- tolerability [5]: well tolerated
- protection against acute kidney injury (AKI) [6]: protective
- activity against polio virus [7]: no activity
- antiviral activity against enveloped viruses (enveloped viruses): broad antiviral activity
- concentration not adversely affecting host cell viability, times higher than effective concentration (HFF cells; CC50 average versus effective concentration, BK virus assays): 16.5 times
- CC50 (HFF cells; experiment 20-bk-007, Primary, HFF, CellTiter-Glo): 62.3 µM
- CC50 (HFF cells; experiment 21-bk2-001, Secondary, HFF, CellTiter-Glo): 95.8 µM
- CC50 (HFF cells; [11]): 82.7 µM
- CC50 (HFF cells; [12]): 82.7 µM
- CC50 (HFF cells; read-out: 50% cytotoxic concentration (CC50), average, averaged in the in vitro studies, host cell viability): 89.2 µM

SMILES: C=Cc1c(C)c2cc3[nH]c(cc4nc(cc5nc(cc1[nH]2)C(C)=C5CCC(=O)[O-])C(CCC(=O)[O-])=C4C)c(C)c3C=C.[Co+2] [Cobalt protoporphyrin, Co-protoporphyrin IX, reference compound]
- activity against polio virus [7]: no activity
- antiviral activity against enveloped viruses (enveloped viruses): broad antiviral activity

SMILES: Nc1ccn(C[C@@H](CO)OCP(=O)(O)O)c(=O)n1 [Cidofovir, reference compound]
- EC90 (BK Virus [1]; Betapolyomavirus hominis, experiment 20-bk-007, Primary, BK Virus Gardner in HFF, qPCR (DNA)): 117 µM
- pEC50 (BK Virus [1]; Betapolyomavirus hominis, experiment 20-bk-007, Primary, BK Virus Gardner in HFF, qPCR (DNA), read-out: EC50): 5.20
- EC90 (BK Virus [1]; Betapolyomavirus hominis, experiment 21-bk2-001, Secondary, BK Virus Gardner in HFF, qPCR (DNA)): 10.7 µM
- pEC50 (BK Virus [1]; Betapolyomavirus hominis, experiment 21-bk2-001, Secondary, BK Virus Gardner in HFF, qPCR (DNA), read-out: EC50): 6.14
- EC90 (BK Virus [1]; Betapolyomavirus hominis, experiment 21-bk2-003, Primary (Standard), BK Virus Gardner in HFF, qPCR (DNA)): 17.9 µM
- pEC50 (BK Virus [1]; Betapolyomavirus hominis, experiment 21-bk2-003, Primary (Standard), BK Virus Gardner in HFF, qPCR (DNA), read-out: EC50): 6.89
- SI50 (BK Virus [1]; experiment 20-bk-007, Primary): >24
- SI90 (BK Virus [1]; experiment 20-bk-007, Primary): >1
- SI50 (BK Virus [1]; [9]): >139
- SI90 (BK Virus [1]; [9]): >9
- SI50 (BK Virus [1]; [10]): >769
- SI90 (BK Virus [1]; [10]): >6
- pEC50 (BK Virus [2]; Betapolyomavirus hominis): < 4.00
- EC90 (BK Virus [2]; Betapolyomavirus hominis): > 100 µM
- SI50 (BK Virus [2]): 1
- SI90 (BK Virus [2]): 1
- CC50 [8]: > 100 µM
- CC50 ([8]; CC50, experiment 20-bk-007, Primary, HFF, CellTiter-Glo): > 150 µM
- CC50 (HFF cells; [11]): > 100 µM
- CC50 (HFF cells; [12]): > 100 µM
